# Measurements as given in PMC3982398 (Biochemical pharmacology, 2009).
# Where two headings read alike, the source gives them in different places.
# Legend:
# human hepatic microsomes [1] = test system: human hepatic microsomes
# [2] = test system: human placental microsomes
# [3] = compared with glyburide; ref [12], [13]; cited from earlier work
# [4] = test system: human placental microsomes; settings: sulfaphenazole 10 μM, lansoprazole 10 μM, troleandomycin 50 and 200 μM, quinidine 5 μM, 4-methylpyrazole 25 μM
# [5] = cited from earlier work
# human hepatic microsomes [6] = assay type: in vitro ADME; settings: ketoconazole 0.5 μM, troleandomycin 50 μM, sulfaphenazole 40 μM; for decrease in formation of M2a: lansoprazole 10 μM; for decrease in the aggregate (total) amount of metabolites formed: α-naphthoflavone 0.05 μM
# CYP19 = settings: ref [27]; cited from earlier work
structure (smiles),measurement,setting,value
"COc1ccc(Cl)cc1C(=O)NCCc1ccc(S(=O)(=O)NC(=O)N[C@H]2CCC[C@@H](O)C2)cc1 (relative stereo) [M2b, 3-cis-hydroxycyclohexyl glyburide]",amount of metabolite formed as percent of the total metabolites,human hepatic microsomes [1],12%
same,amount of metabolite formed as percent of the total metabolites,[2],1%
same,potency in lowering the concentration of glucose,[3],as potent as glyburide
"COc1ccc(Cl)cc1C(=O)NCCc1ccc(S(=O)(=O)NC(=O)N[C@@H]2CCCC[C@H]2O)cc1 (relative stereo) [M4, 2-trans-hydroxycyclohexyl glyburide]",amount of metabolite formed as percent of the total metabolites,human hepatic microsomes [1],4%
same,amount of metabolite formed as percent of the total metabolites,[2],1%
C[C@]12CCC(=O)C(O)=C1CC[C@@H]1[C@@H]2CC[C@]2(C)C(=O)CC[C@@H]12 [4-hydroxyandrostenedione],decrease in M5 formation,"[4]; 4-hydroxyandrostenedione 10 μM, α-naphthoflavone 0.05 μM",87%
"COc1ccc(Cl)cc1C(=O)NCCc1ccc(S(=O)(=O)NC(=O)N[C@H]2CC[C@H](O)CC2)cc1 [M1, 4-trans-hydroxycyclohexyl glyburide]",amount of metabolite formed as percent of the total metabolites,[2],4%
same,potency in lowering the concentration of glucose,[3],as potent as glyburide
"COc1ccc(Cl)cc1C(=O)NCCc1ccc(S(=O)(=O)NC(=O)N[C@H]2CC[C@@H](O)CC2)cc1 [M2a, 4-cis-hydroxycyclohexyl glyburide]",amount of metabolite formed as percent of the total metabolites,human hepatic microsomes [1],11%
same,amount of metabolite formed as percent of the total metabolites,[2],negligible
"COc1ccc(Cl)cc1C(=O)NCCc1ccc(S(=O)(=O)NC(=O)NC2CCCC(O)C2)cc1 (stereo not drawn) [M3, 3-trans-hydroxycyclohexyl glyburide]",amount of metabolite formed as percent of the total metabolites,human hepatic microsomes [1],6%
same,amount of metabolite formed as percent of the total metabolites,[2],1%
COc1ccccc1Oc1c(NS(=O)(=O)c2ccc(C(C)(C)C)cc2)nc(-c2ncccn2)nc1OCCO [bosentan],effect of administration on plasma levels of glyburide,[5]; ref [18],lowered plasma levels of glyburide
CC(=O)N1CCN(c2ccc(OCC3COC(Cn4ccnc4)(c4ccc(Cl)cc4Cl)O3)cc2)CC1 (stereo not drawn) [ketoconazole],decrease in formation of M1,human hepatic microsomes [6],≤ 20%
same,decrease in formation of M2b,human hepatic microsomes [6],≤ 20%
same,decrease in formation of M3,human hepatic microsomes [6],≥ 50%
same,decrease in formation of M4,human hepatic microsomes [6],≥ 50%
same,decrease in formation of M5,human hepatic microsomes [6],93%
same,decrease in formation of M2a,human hepatic microsomes [6],approximately 40%
same,decrease in the aggregate (total) amount of metabolites formed,human hepatic microsomes [6],53%
Cc1c(OCC(F)(F)F)ccnc1C[S+]([O-])c1nc2ccccc2[nH]1 (stereo not drawn) [lansoprazole],decrease in formation of M2a,human hepatic microsomes [6],≈ 20%
same,effect on the aggregate amount of metabolites,[4],negligible
C=C[C@H]1C[N@@]2CC[C@H]1C[C@@H]2[C@@H](O)c1ccnc2ccc(OC)cc12 [quinidine],effect on the aggregate amount of metabolites,[4],negligible
CO[C@H]1/C=C/O[C@@]2(C)Oc3c(C)c(O)c4c(O)c(c(/C=N/N5CCN(C)CC5)c(O)c4c3C2=O)NC(=O)/C(C)=C\C=C\[C@H](C)[C@H](O)[C@@H](C)[C@@H](O)[C@@H](C)[C@H](OC(C)=O)[C@@H]1C [rifampin],effect of administration on plasma levels of glyburide,[5]; ref [30],lowered plasma levels of glyburide
Nc1ccc(S(=O)(=O)Nc2ccnn2-c2ccccc2)cc1 [sulfaphenazole],decrease in formation of M1,human hepatic microsomes [6],approximately 40%
same,decrease in formation of M2b,human hepatic microsomes [6],approximately 40%
same,decrease in formation of M3,human hepatic microsomes [6],≤ 20%
same,decrease in formation of M4,human hepatic microsomes [6],≤ 20%
same,decrease in formation of M5,human hepatic microsomes [6],≤ 20%
same,decrease in formation of M2a,human hepatic microsomes [6],approximately 40%
same,decrease in the aggregate (total) amount of metabolites formed,human hepatic microsomes [6],28%
same,effect on the aggregate amount of metabolites,[4],negligible
O=c1cc(-c2ccccc2)oc2c1ccc1ccccc12 [α-naphthoflavone],inhibition of CYP19,CYP19,inhibitor of CYP19
